In patent US20120065228A1, “COMPOSITIONS AND METHODS FOR TREATING, CONTROLLING, REDUCING, OR AMELIORATING OCULAR INFLAMMATORY WITH LOWER RISK OF INCREASED INTRAOCULAR PRESSURE” (priority 2007, published 2012):
Several values for one entry are separate records, joined by “and”; a condition that tells them apart may be missing. Identical values can stand only once.

What was measured:
[1] = test system: intraocular pressure (IOP) in New Zealand White rabbits; assay: Intraocular pressure in New Zealand White rabbits, topical dosing four times daily; type: in vivo
Protocol: On Days 1-31, animals received daily topical doses of the appropriate test article into the right eye. Animals were dosed four times per day, with doses administered 2 hours apart. Doses were administered using a calibrated 50-μL pipette. The eyelids were held close for 10 seconds immediately following dosing. The time of each dose administration was recorded.
Intraocular pressure (“IOP”) was determined for both eyes of each animal on Days 3, 5, 10, 12, 16, 18, 22, 24, 26, 30, and 32. LOP was evaluated with a Medtronic Solan, Model 30 classic pneumatonometer. Proparacaine hydrochloride 0.5% (1 drop) was delivered to each eye prior to IOP measurement. IOP was measured on Monday, Wednesday, and Friday of each week. A two-point diurnal curve was established: IOP was recorded at 8 a.m. and 12 p.m. on Day 3, and at 8 a.m. and 2 p.m. on later days, with a ±1 hour range for each of these times. The time of the measurements was recorded.
Descriptive statistics were prepared for IOP data of each treatment group (left and right eyes separately) at each measurement interval. The statistics included the number of observations (“N”), mean, standard deviation (“STD”), and standard error (“SEM”). Statistical analyses were conducted on IOP results using Statistical Analysis Systems (SAS Institute, Inc., Cary, N.C., V8.0). Parameters were evaluated using analysis of variance/GLM Procedure followed by Tukey's Standardized Range Test (Tukey, 1985) for post hoc comparisons of group means. The level of significance was set at a probability of p<0.05 for all statistical procedures. Group IOP means were compared at each interval, with left and right eyes compared separately.
IOP data for the following six animals were excluded from group statistics: Group A, Nos. 3081, 3037, 3068, and 3011; Group C, No. 3034; and Group E, No. 3084.

rabbit eye = assay: Clinical evaluation by slit lamp (clinical score), rabbit paracentesis model; type: in vivo; set-up: key to Clinical Score −180 min / Clinical Score −5 min / Clinical Score +115 min: 0: normal; 1: discrete dilatation of iris and conjunctival vessels; 2: moderate dilatation of iris and conjunctival vessels; 3: intense iridal hyperemia with flare in the anterior chamber; 4: intense iridal hyperemia with flare in the anterior chamber and presence of fibrinous exudates; conditions: 0.1% topical formulation
monkey TM cells = assay: Cell metabolic activity (resazurin reduction) assay in monkey TM cells; type: cell-based, rhesus monkeys (Macaca mulatta); conditions: at the conclusion of the treatment periods
Protocol: A modification of previously described methods^40 was employed to evaluate cell metabolic activity, an index of cell viability. After collection of CM samples, cells were briefly rinsed in modified Hanks balanced salt solution containing Ca^++ and Mg^++ (“MHBSS”), and then 0.0025% (w/v) resazurin (Sigma) in MHBSS was added to sample wells. Plates were incubated (37° C., 5% CO2, 95% humidity) for 90 minutes, after which fluorescence (Excitation 560 nm, Emission 590 nm) was read (Victor 3V Multilabel Counter, Wallac, Turku, Finland). As a positive control for decreased cellular metabolic reduction of resazurin, in each plate an additional well of vehicle control-treated cells was preincubated with 0.06% hydrogen peroxide (Fisher, Atlanta, Ga.) in MHBSS.

C[C@@H]1C[C@H]2[C@@H]3CCC4=CC(=O)C=C[C@]4(C)[C@@]3(F)[C@@H](O)C[C@]2(C)[C@@]1(O)C(=O)CO [dexamethasone, reference compound]
Mean IOP versus corresponding eyes of other groups ([1]; 0.1% dexamethasone suspension, on several days, p<0.05): significantly higher | Mean IOP after treatment began ([1]; rabbits, right eye four times daily up to 31 days, dexamethasone 0.1%, BOL-303242-X 1, 5, 10 mg/g, left and right eyes): increased sharply | Clinical Score −5 min (rabbit eye; 5 min before the first paracentesis, individual eyes, listed as Dex): 0 (6×) and 1 (2×) | Clinical Score +115 min (rabbit eye; 5 min before the second paracentesis, individual eyes, listed as Dex): 1 (6×) and 3 (2×) | Clinical score as percentage of eyes, Score (%) 1 (rabbit eye; +115 min, 8 eyes): 75% | Clinical score as percentage of eyes, Score (%) 3 (rabbit eye; +115 min, 8 eyes): 25% | Clinical Score −180 min (rabbit eye; basal, individual eyes): 0 | Clinical score as percentage of eyes, Score (%) 0 (rabbit eye; −5 min, 8 eyes): 75% | Clinical score as percentage of eyes, Score (%) 1 (rabbit eye; −5 min, 8 eyes): 25% | Clinical score as percentage of eyes, Score (%) 0 (rabbit eye; −180 min (basal), 8 eyes): 100% | Cell viability (chemical reduction of resazurin) compared to vehicle controls (monkey TM cells): nor did any drug treatments result in a loss of cell viability
